Laboratory results reported in patent US9205073B2, “Method for treating virus infection using derivative of aniline” (CHINA MEDICAL UNIVERSITY, priority 2014, dated 2015).

How the values were obtained:
JEV T1P1 [1] = assay: Cytopathic effect test, JEV T1P1-infected BHK-21 cells; assay type: cell-based, Japanese encephalitis virus
Procedure: (§1) BHK-21 cells and/or TE671cells were separately cultured in a 24-well culture plate, with an initial density of 3×10^4 per well, and with 1 ml of 2% FBS-containing MEM medium per well. The cells were incubated in an incubator (37° C., 5% CO2) overnight, and the medium was removed until the cells adhered to the plate. Then, fresh 2% FBS-containing MEM medium was simultaneously added into each well of the culture plate. The cells were infected with a JEV T1P1 virus strain, wherein the amount of JEV T1P1 used to infect BHK-21 cells was a multiplicity of infection (M.O.I.)=0.1, and the amount of JEV T1P1 used to infect TE671 cells was M.O.I.=0.05. Different concentrations of compound 1 (final concentrations were 0, 2.5, 25 and 125 μM, respectively) were added into different wells. The culture plate was placed into an incubator (37° C., 5% CO2) and maintained therein.
(§2) When BHK-21 cells were infected with JEV T1P1 virus strain for 48 and 72 hours as indicated in the above experiment (1), the cytopathic effect was observed by photography, while the cytopathic effect of TE671 cells was observed by photography when TE671 cells were infected with the JEV T1P1 virus strain for 36 and 48 hours. In addition, 200 μl culture medium supernatant of both cells was collected from each time point (i.e., 48 and 72 hours), thereby, providing the use for a viral plaque test in Example 4.

[2] = MTT assay, cell survival / CC50 in BHK-21 cells; assay type: cell-based; conditions: hamster, read-out: concentration of 50% cytotoxicity (CC50)
Procedure: In this example, 3-(4,5-dimethylthiazol-2-yl)-2,5-diphenyl tetrazolium bromide (MTT) was used to determine if the survival rate of BHK-21 cells, TE671cells and RD cells would be influenced when being treated with different concentrations of compound 1 prepared in Example 1. The concentration of 50% cytotoxicity (CC50) of compound 1 in BHK-21 cells, TE671cells and RD cells was also calculated.
MTT is a water-soluble tetrazolium salt which can react in the mitochondrial respiratory chain in living cells to metabolize and reduce the tetrazolium bromide shown in the structure of MTT and to form an water-insoluble purple crystal formazan under the reaction of succinate dehydrogenase (SDH) and cytochrome c (cyt c). The amount of the produced crystal is directly proportional to the number of living cells (because the SDH will disappear from dead cells, and thus, the MTT cannot be reduced). Furthermore, a mitochondrium is an organelle in cells that is most sensitive to the environment, and thus, the MTT assay can serve as a marker for the survival rate of cells treated by the drug.
BHK-21 cells, TE671cells and RD cells were cultured in a 96-well culture plate, respectively, with an initial density of 3×10^3 per well, and with 100 μl of 2% FBS-containing MEM medium per well. […] The absorbances of the samples were measured by ELISA at a wavelength of 570/630 nm.

JEV T1P1 [3] = assay: Cytopathic effect test, JEV T1P1-infected TE671 cells; assay type: cell-based, Japanese encephalitis virus
Procedure: as §1, §2

JEV T1P1 [4] = assay: Apoptosis test (Annexin V/PI flow cytometry), JEV T1P1-infected TE671 cells; assay type: cell-based, Japanese encephalitis virus; conditions: JEV T1P1 infection 36 hours, compound 125 μM; infected without compound 20.1%
Procedure: as §1
BHK-21 cells and TE 671 cells were washed with PBS after being infected with the JEV T1P1 virus strain for 36 hours in the above experiment (1). Then, PBS was removed. Trypsin-EDTA (150 μl) was added into each well. The cells were incubated in an incubator at 37° C. for 3 minutes. Then, 1 ml MEM medium was added into each well to neutralize EDTA. […] The cells were maintained in the dark for 5 to 10 minutes, and then analyzed by flow cytomerty.

CCOC(=O)C1=C(Nc2cc(C)cc(C)c2)OCC1=O [Compound 1, ethyl 2-(3′,5′-dimethylanilino)-4-oxo-4,5-dihydrofuran-3-carboxylate]
JEV T1P1-induced cytopathic effect (JEV T1P1 [1]; infected 48 hours, M.O.I.=0.1, compound 25 μM simultaneously): significantly reduced
JEV T1P1-induced cytopathic effect (JEV T1P1 [1]; infected 72 hours, M.O.I.=0.1, compound 125 μM simultaneously): effectively inhibited
CC50 at 48 h [2]: > 500 µM
JEV T1P1-induced cytopathic effect (JEV T1P1 [3]; infected 36 hours, M.O.I.=0.05, compound 25 μM simultaneously): inhibited
JEV T1P1-induced cytopathic effect (JEV T1P1 [3]; infected 48 hours, M.O.I.=0.05, compound 25 μM): inhibited
ratio of TE671 cells getting into late apoptosis (JEV T1P1 [4]): 4.7%
